Key:
[1] = molecular target: Kappa-type opioid receptor (Homo sapiens) (UniProt P41145); assay: Inhibitory activity against Opioid receptor kappa 1 using [3H]U-69593 at 10e-7 (M)
[2] = molecular target: D(1A) dopamine receptor (Homo sapiens) (UniProt P21728); assay: Inhibitory activity against Dopamine receptor D1 using [3H]SCH-23,390 at […] (M)
[3] = molecular target: GABA-A receptor; anion channel (Homo sapiens) (UniProt P14867+P47870+P18507+P28472+P48169+Q99928+Q9UN88+P34903+O00591+O14764+Q8N1C3+P18505+P78334+P47869+P31644+Q16445); assay: Inhibition of [3H]flunitrazepam binding to GABA-A central Benzodiazepine receptor at 10e-5 M; format: protein-complex assay
[4] = molecular target: 5-hydroxytryptamine receptor 1B (Rattus norvegicus, UniProt P28564); assay: Binding affinity for 5-hydroxytryptamine 1B receptor
[5] = molecular target: Cholecystokinin receptor type A (Homo sapiens) (UniProt P32238); assay: Inhibitory activity against Cholecystokinin type A receptor using [3H]L-364718 at […] (M)
[6] = Inhibitory activity against Bradykinin receptor using [3H]bradykinin at […] (M)
[7] = molecular target: Interleukin-1 receptor type 1 (Homo sapiens) (UniProt P14778); assay: Inhibitory activity against Interleukin 1d using [3H]IL-1-alpha at […] (M)
[8] = molecular target: Kappa-type opioid receptor (Homo sapiens) (UniProt P41145); assay: Inhibitory activity against Opioid receptor kappa 1 using [3H]U-69593 at 10e-5 (M)
[9] = molecular target: Adrenergic receptor alpha-1 (Homo sapiens) (UniProt P35348+P25100+P35368); assay: Inhibitory activity against Alpha-1 adrenergic receptor using [3H]-prazosin at 10e-5 (M); format: protein assay
[10] = Inhibitory activity against Gamma-aminobutyric acid type B receptor using [3H]GABA at 10e-5 M
[11] = molecular target: Glutamate [NMDA] receptor (Homo sapiens) (UniProt Q05586+Q12879+Q13224+O15399+O60391+Q14957+Q8TCU5); assay: Inhibitory activity against Phencyclidine receptor using [3H]-TCP at […] (M); format: protein-complex assay
[12] = Inhibition of [3H]PK11195 binding to peripheral Benzodiazepine receptor at 10e-5 M
[13] = molecular target: Adenosine receptor A1 (Homo sapiens) (UniProt P30542); assay: Inhibitory activity against Adenosine A1 receptor using [3H]DPCPX at […] (M)
[14] = test system: NG108-15; assay: In vitro effective concentration against [14C]guanidinium uptake into NG 108-15 cells; format: functional, cell-based; conditions: Murinae
[15] = Inhibitory activity against VIP using [125]VIP at 10e-5 (M)
[16] = molecular target: Adrenergic receptor alpha-2 (Homo sapiens) (UniProt P08913+P18825+P18089); assay: Inhibitory activity against Alpha-2 adrenergic receptor using [3H]RX-821002 at 10e-5 (M); format: protein assay
[17] = molecular target: 5-hydroxytryptamine receptor 2A (Bos taurus, UniProt Q75Z89); assay: Binding affinity towards 5-hydroxytryptamine 2A receptor
[18] = molecular target: Thromboxane A2 receptor (Homo sapiens) (UniProt P21731); assay: Inhibitory activity against Thromboxane A2 using [3H]SG-29548 at 10e-5 (M)
[19] = molecular target: 5-hydroxytryptamine receptor 1D (Sus scrofa, UniProt P79400); assay: Binding affinity for 5-hydroxytryptamine 1D receptor
[20] = molecular target: Beta-1 adrenergic receptor (Homo sapiens) (UniProt P08588); assay: Inhibitory activity against Beta-1 adrenergic receptor using [3H]CGP-12177 at 10e-5 (M)
[21] = molecular target: Serotonin 3 (5-HT3) receptor (Rattus norvegicus) (UniProt P35563+Q9JJ16); assay: Agonistic activity of compound towards 5-hydroxytryptamine 3 receptor in Von Bezold-Jarisch Reflex in rats at 120 (ug/kg), evaluated as change in heart rate; format: functional
[22] = molecular target: Beta-2 adrenergic receptor (Homo sapiens) (UniProt P07550); assay: Inhibitory activity against Beta-2 adrenergic receptor using [3H]CGP-12177 at […] (M)
[23] = molecular target: Thyrotropin-releasing hormone receptor (Homo sapiens) (UniProt P34981); assay: Inhibitory activity against TRH using [3H]TRH at 10e-5 (M)
[24] = molecular target: Insulin receptor (Homo sapiens) (UniProt P06213); assay: Displacement of [3H]insulin from Insulin receptor at 10e-5 M
[25] = molecular target: D(2) dopamine receptor (Homo sapiens) (UniProt P14416); assay: (§1) In vitro displacement from Dopamine receptor D2; conditions: concentration not given here
[26] = molecular target: Glutamate receptor ionotropic kainate (Homo sapiens) (UniProt P39086+Q16478+Q16099+Q13002+Q13003); assay: Inhibitory activity against Ionotropic glutamate receptor kainate using [3H]- Kainate at […] (M); format: protein-complex assay
[27] = molecular target: Adenosine A2 receptor (Homo sapiens) (UniProt P29275+P29274); assay: Inhibitory activity against Adenosine A2 receptor using [3H]CGS-21680 at […] (M); format: protein assay
[28] = molecular target: Delta-type opioid receptor (Rattus norvegicus) (UniProt P33533); assay: Inhibitory activity against Opioid receptor delta 1 using [3H]Cl-phe-DPDPE at 10e-5 (M)
[29] = molecular target: D(2) dopamine receptor (Homo sapiens) (UniProt P14416); assay: as §1; conditions: concentration not given here; remark: listed apart in the source
[30] = molecular target: Mu-type opioid receptor (Homo sapiens) (UniProt P35372); assay: Inhibitory activity against Opioid receptor mu 1 using [3H]DAMGO at 10e-5 (M)
[31] = molecular target: Platelet-activating factor receptor (Homo sapiens) (UniProt P25105); assay: Inhibitory activity against Platelet activating factor receptor using [3H]PAF at […] (M)
[32] = molecular target: T1, 5-hydroxytryptamine receptor 1A (Homo sapiens, UniProt P08908); assay: Binding affinity for 5-hydroxytryptamine 1A receptor
T1 sequence (P08908 whole entry): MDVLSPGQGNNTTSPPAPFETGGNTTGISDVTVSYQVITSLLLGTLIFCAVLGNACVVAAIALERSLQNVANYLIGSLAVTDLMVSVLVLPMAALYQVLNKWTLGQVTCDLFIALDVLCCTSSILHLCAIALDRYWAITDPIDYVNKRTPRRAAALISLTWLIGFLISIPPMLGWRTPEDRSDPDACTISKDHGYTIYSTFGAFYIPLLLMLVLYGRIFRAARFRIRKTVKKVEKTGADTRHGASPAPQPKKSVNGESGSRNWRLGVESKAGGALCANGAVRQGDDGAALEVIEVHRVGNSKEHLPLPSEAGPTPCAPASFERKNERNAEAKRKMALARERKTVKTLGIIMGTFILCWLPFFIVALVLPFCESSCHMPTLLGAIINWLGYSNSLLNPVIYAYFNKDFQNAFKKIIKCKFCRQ

[33] = molecular target: Neuropeptide Y receptor type 1 (Homo sapiens) (UniProt P25929); assay: Inhibitory activity against Neuropeptide Y receptor type 1 using [3H]-NPY at 10e5 (M)

Kappa-type opioid receptor (Homo sapiens), sequence (P41145 whole entry): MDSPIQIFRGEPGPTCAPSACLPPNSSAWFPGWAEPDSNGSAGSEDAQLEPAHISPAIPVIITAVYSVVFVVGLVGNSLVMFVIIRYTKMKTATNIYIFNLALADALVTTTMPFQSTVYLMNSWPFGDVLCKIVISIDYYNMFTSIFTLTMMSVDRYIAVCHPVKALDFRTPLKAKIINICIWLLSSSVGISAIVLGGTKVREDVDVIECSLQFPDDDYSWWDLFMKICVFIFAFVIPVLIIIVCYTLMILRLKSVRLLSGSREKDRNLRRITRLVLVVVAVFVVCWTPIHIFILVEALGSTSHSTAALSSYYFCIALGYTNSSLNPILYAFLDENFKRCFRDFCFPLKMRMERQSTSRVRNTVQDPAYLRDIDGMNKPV
D(2) dopamine receptor (Homo sapiens), sequence (P14416 whole entry): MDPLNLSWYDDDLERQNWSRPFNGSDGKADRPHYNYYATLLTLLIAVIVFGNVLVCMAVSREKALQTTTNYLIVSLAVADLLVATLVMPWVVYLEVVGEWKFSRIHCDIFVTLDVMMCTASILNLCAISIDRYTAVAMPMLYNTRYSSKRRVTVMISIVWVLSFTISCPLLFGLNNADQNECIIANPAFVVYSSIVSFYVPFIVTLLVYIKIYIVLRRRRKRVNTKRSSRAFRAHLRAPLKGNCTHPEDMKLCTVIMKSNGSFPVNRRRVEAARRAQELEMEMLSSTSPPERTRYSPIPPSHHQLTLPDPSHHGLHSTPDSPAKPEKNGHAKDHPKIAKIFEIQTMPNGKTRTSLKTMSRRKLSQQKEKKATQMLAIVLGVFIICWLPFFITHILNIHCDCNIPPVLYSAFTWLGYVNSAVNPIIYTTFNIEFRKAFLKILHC
Platelet-activating factor receptor (Homo sapiens), sequence (P25105 whole entry): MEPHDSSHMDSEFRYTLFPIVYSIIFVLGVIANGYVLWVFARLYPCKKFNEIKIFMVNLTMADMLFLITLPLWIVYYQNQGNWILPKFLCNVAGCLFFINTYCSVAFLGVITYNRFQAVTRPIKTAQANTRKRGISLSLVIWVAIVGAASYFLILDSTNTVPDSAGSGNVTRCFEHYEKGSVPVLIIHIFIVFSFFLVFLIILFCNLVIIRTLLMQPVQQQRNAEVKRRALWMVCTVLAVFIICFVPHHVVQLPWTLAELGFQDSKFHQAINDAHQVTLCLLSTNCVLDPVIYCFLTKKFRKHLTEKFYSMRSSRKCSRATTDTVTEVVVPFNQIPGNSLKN
Cholecystokinin receptor type A (Homo sapiens), sequence (P32238 whole entry): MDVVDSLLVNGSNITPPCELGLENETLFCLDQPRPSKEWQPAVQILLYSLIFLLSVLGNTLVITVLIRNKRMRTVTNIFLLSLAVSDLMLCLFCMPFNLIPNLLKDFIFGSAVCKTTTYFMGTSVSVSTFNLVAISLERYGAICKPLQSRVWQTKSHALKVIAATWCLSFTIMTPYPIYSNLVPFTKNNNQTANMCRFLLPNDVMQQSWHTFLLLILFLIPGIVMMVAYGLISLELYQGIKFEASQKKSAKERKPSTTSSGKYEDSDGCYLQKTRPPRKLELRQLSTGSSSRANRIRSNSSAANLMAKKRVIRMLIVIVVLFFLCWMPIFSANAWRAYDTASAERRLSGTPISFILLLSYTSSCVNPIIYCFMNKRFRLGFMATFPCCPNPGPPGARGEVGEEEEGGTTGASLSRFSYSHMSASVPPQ
Delta-type opioid receptor (Rattus norvegicus), sequence (P33533 whole entry): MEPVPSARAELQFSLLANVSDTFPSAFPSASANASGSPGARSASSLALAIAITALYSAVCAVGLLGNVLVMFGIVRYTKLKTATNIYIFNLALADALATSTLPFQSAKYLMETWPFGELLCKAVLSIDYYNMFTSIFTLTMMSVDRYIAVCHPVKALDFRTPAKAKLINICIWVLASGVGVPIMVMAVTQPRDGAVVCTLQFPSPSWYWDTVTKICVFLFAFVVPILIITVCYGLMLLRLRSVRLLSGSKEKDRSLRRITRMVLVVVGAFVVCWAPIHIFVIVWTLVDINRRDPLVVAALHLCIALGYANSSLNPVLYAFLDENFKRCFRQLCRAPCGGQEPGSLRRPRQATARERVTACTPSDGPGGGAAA
Interleukin-1 receptor type 1 (Homo sapiens), sequence (P14778 whole entry): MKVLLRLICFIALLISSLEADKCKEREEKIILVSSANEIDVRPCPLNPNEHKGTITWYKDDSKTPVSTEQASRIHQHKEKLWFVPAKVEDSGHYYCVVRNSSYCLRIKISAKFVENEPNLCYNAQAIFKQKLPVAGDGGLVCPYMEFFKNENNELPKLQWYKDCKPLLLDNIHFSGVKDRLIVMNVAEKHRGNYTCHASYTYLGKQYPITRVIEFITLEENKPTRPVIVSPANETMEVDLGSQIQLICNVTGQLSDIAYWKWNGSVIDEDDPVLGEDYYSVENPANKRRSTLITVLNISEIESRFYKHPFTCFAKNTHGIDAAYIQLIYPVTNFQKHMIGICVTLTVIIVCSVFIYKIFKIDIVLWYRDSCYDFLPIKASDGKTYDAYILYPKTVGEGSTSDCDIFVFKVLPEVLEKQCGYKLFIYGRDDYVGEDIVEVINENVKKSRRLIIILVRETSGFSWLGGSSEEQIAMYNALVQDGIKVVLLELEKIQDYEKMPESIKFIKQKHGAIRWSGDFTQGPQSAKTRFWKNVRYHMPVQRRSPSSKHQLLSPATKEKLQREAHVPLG
5-hydroxytryptamine receptor 1B, sequence (P28564 whole entry): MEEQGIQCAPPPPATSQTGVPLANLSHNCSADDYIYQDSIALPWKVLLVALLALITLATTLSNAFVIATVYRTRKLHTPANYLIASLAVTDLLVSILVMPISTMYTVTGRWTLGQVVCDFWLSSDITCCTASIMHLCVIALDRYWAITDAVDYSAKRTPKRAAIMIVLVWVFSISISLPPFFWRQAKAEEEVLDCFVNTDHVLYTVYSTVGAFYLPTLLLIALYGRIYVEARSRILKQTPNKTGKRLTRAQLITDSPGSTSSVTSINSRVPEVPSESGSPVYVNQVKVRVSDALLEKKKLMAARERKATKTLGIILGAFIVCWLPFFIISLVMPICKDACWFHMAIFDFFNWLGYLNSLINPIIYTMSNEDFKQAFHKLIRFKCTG
Beta-1 adrenergic receptor (Homo sapiens), sequence (P08588 whole entry, looked up): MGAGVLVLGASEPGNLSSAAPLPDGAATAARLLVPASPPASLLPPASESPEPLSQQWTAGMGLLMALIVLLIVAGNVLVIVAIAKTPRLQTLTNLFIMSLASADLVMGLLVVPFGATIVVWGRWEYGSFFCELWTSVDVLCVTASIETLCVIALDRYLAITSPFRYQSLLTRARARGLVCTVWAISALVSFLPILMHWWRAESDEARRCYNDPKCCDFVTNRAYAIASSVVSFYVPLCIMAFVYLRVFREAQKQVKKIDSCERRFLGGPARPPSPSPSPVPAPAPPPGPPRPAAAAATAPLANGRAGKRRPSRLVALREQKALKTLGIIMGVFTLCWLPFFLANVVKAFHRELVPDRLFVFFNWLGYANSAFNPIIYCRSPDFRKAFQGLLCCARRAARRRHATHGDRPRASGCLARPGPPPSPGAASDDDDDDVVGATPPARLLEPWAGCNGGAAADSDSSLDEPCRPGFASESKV
D(1A) dopamine receptor (Homo sapiens), sequence (P21728 whole entry): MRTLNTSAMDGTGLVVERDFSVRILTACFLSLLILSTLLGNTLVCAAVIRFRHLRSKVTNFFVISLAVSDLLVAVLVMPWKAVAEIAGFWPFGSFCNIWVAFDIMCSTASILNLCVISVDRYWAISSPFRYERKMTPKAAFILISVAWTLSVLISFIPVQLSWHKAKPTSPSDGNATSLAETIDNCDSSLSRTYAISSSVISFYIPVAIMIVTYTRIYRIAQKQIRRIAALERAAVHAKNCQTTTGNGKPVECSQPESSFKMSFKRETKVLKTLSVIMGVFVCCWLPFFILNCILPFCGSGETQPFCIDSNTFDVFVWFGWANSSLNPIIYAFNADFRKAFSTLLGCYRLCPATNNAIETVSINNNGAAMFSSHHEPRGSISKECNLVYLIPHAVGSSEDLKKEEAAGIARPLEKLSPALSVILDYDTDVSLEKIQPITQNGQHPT
Thyrotropin-releasing hormone receptor (Homo sapiens), sequence (P34981 whole entry): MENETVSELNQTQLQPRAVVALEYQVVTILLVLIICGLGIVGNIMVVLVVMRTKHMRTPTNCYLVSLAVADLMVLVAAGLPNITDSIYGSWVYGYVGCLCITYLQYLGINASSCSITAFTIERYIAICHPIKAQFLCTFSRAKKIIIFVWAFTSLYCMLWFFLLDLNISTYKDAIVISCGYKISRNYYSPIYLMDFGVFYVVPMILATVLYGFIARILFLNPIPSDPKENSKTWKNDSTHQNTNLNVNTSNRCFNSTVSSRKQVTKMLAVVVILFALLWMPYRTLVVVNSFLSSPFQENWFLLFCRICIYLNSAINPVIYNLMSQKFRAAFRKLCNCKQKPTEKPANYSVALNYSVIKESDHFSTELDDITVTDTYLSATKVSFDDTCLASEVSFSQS
Mu-type opioid receptor (Homo sapiens), sequence (P35372 whole entry): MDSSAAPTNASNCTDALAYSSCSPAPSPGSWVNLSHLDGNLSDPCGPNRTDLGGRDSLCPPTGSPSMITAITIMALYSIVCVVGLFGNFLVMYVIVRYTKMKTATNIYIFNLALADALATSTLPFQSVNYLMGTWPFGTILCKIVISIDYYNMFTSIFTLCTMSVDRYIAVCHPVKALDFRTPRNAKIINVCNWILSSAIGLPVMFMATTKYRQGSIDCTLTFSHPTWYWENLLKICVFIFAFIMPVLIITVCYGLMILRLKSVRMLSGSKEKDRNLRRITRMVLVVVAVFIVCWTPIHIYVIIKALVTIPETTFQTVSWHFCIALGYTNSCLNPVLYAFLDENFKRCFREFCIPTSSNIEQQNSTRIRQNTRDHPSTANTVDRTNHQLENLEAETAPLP
5-hydroxytryptamine receptor 1D, sequence (P79400 whole entry): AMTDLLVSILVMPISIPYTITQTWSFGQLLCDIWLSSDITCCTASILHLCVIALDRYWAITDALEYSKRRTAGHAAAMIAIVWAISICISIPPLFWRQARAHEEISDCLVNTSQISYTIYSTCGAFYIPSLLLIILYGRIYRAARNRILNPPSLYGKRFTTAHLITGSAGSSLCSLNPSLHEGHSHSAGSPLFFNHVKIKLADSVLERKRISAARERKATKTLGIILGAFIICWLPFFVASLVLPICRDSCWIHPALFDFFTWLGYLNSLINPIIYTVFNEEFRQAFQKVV

In the case of `c1ccc(CN2CCN(c3nc4ccsc4n4cccc34)CC2)cc1`, the inhibition [1] is reported as 10%, the inhibition [2] is reported as 14% and the inhibition [3] is reported as 5%. For the same compound, the IC50 [4] was 1020 nM, the inhibition [5] was 7% and the inhibition [6] was 28%. The inhibition [7] was 1%, the inhibition [8] was 55% and the inhibition [9] was 26%. It also gave an inhibition [10] of 40%, an inhibition [11] of 10% and an inhibition [12] of 34%. It also gave an inhibition [13] of 23%, an EC50 [14] of 10 nM and an inhibition [15] of 6%. It also gave an inhibition [16] of 29%, an IC50 [17] of 4370 nM and an inhibition [18] of 32%. For the same compound, the IC50 [19] was 14100 nM, the inhibition [20] was 21% and the Change [21] was 42%. For the same compound, the inhibition [22] was 19%, the inhibition [23] was 12% and the inhibition [24] was 15%. It also gave an inhibition [25] of 5%, an inhibition [26] of 12% and an inhibition [27] of 4%. The inhibition [28] was 14%, the inhibition [29] was 86% and the inhibition [30] was 29%. The inhibition [31] was 2%, the IC50 [32] was 398 nM and the inhibition [33] was 4%.

From ChEMBL document CHEMBL1129317, “Novel selective and partial agonists of 5-HT3 receptors. Part 1. Synthesis and biological evaluation of piperazinopyrrolothienopyrazines” (J Med Chem, 1996)
